Reference: patent US4883863A, “Tripeptide derivatives and antiplasmin agents containing the same” (Nitto Boseki Co., Ltd., priority 1987, dated 1989)
Structures can show the parent of a compound that is named as a salt. Where a SMILES comes first, the peptide text is derived from it. [ ]: non-standard residue; d: D form. The star is where a group is joined. Tos = Cc1ccc(S(=O)(=O)*)cc1; Moc = COC(=O)*; For = O=C*

Assays:
Type in all cases: biochemical
plasmin = plasmin (Homo sapiens, UniProt P00747); assay: Plasmin-inhibiting activity, synthetic substrate PS-994; set-up: purchased Sankyo (Color Test α2 -D1 Kit); details: Table 4; PS-994, pH 7.8, 37° C.
Description: (§1) Synthetic substrates used for testing the inhibitory activity of the inhibitors on decomposition of substrates by the enzymes were as follows. For plasmin, PS-994 (H--D--Lys(Tos)--Phe--Lys--CHA·2HCl, mfd. by NITTO BOSEKI Co., Ltd.) was used; for thrombin and trypsin, PS-915 (H--D--Phe--Pro--Arg--CHA·2HCl, mfd. by NITTO BOSEKI Co., Ltd.); for Factor Xa, PS-2000 (Z--D--Lys--(HCO)--Gly--Arg--CHA·HCl, mfd. by NITTO BOSEKI Co., Ltd.); and for kallikrein, S-2302 (H--D--Pro--Phe--Arg--pNA, mfd., by Kabi Co., Ltd.).
(§2) As plasmin, standard plasmin of Sankyo Color Test α2 -D1 Kit was used in an amount of 0.3CU/ml. As thrombin, that of Sankyo Color Test ATIII kit was used in an amount of 1.2 NIHU/ml. As trypsin, that of cord 3703 of Worthington was used in an amount of 2 μg/ml. As human Factor Xa, that of Boehringer Manheim Co., Ltd. was used in an amount of 0.25 U/ml. As human plasma kallikrein, that of Kabi Co., Ltd. was used in an amount of 0.12 U/ml. As terminating color reagents, those for Sankyo Color Test Kit were used. The reactions were carried out at 37° C. unless otherwise specified.
Each of aqueous solutions (0.1 ml) of the inhibitors which solutions were various in their respective concentrations was added to 0.4 ml of a buffer solution (a 150 mM aqueous sodium chloride solution containing 100 mM Tris, pH 7.8), and the resulting solution was heated for 5 minutes. To this solution was added 0.2 ml of plasmin solution, followed by incubation for 5 minutes, and then 0.1 ml of a PS-994 solution (10 mM) was added, and then incubated for 5 minutes. After completion of the reaction, 2.0 ml of terminating color reagent was added, and after standing for 10 minutes, absorbance at 700 nm was measured. A concentration of the inhibitor in the reaction system at which the absorbance was one-half that obtained in the absence of the inhibitor was determined as IC50.

thrombin = target: T1, thrombin (Homo sapiens, UniProt P00734); assay: Thrombin-inhibiting activity, synthetic substrate PS-915; details: Table 4; PS-915, pH 8.5, 37° C.
T1 construct: purchased Sankyo (Color Test ATIII kit)
Description: as §1, §2
Each of aqueous solutions (0.1 ml) of the inhibitors which solutions were various in their respective concentrations was added to 0.4 ml of a buffer solution (a 150 mM aqueous sodium chloride solution containing 150 mM Tris, pH 8.5), and the resulting solution was heated for 5 minutes. To this solution was added 0.2 ml of thrombin solution, followed by incubation for 5 minutes. Then, 0.1 ml of a PS-915 solution (10 mM) was added, followed by incubation for 5 minutes. Thereafter, 2 ml of terminating color reagent was added. After standing for 10 minutes, absorbance at 700 nm was measured, and IC50 was determined in the manner described above.

human Factor Xa = target: T2, human Factor Xa (Homo sapiens, UniProt P00742); assay: Factor Xa-inhibiting activity, synthetic substrate PS-2000; details: Table 4; PS-2000, pH 8.5, 37° C.
T2 construct: purchased Boehringer Manheim Co., Ltd
Description: as §1, §2
Each of aqueous solutions (1 ml) of the inhibitors which solutions were various in their respective concentrations was added to 0.3 ml of a buffer solution (a 150 mM aqueous sodium chloride solution containing 50 mM Tris, pH 8.5 ), and the resulting solution was heated for 5 minutes. Then, 0.1 ml of a Factor Xa solution (a 150 mM aqueous sodium chloride solution containing 50 mM Tris and 20 mM calcium chloride, pH 8.5) was added, followed by incubation for 5 minutes. Subsequently, a 5% polyvinyl pyrrobidone solution (0.1 ml) containing 10 mM PS-2000 was added, followed by incubation for 5 min. Thereafter, 2 ml of terminating color reagent was added. After standing for 10 minutes, absorbance at 700 nm was measured and IC50 was determined in the manner described above.

T2 sequence (P00742 235-488 limits assumed): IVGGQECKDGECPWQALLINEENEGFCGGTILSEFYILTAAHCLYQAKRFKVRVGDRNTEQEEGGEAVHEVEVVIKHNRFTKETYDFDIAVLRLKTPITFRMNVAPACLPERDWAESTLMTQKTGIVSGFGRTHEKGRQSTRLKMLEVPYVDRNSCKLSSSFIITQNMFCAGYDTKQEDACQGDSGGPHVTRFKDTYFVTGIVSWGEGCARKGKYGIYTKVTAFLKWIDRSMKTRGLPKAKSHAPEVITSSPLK
T2 sequence (P00742 41-179 partner limits assumed): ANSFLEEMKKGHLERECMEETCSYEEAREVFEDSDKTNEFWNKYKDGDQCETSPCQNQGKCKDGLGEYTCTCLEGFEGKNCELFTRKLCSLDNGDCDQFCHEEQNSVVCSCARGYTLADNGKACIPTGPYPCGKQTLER
Sequence of plasmin (P00747 581-810 limits assumed, species assumed): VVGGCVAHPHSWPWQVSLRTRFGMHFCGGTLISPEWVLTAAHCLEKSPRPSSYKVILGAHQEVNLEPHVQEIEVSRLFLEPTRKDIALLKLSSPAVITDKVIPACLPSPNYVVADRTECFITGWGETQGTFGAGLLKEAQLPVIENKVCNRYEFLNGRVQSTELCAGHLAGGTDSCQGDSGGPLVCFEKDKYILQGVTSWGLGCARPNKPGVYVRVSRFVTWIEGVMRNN
Sequence of plasmin (P00747 97-580 partner limits assumed, species assumed): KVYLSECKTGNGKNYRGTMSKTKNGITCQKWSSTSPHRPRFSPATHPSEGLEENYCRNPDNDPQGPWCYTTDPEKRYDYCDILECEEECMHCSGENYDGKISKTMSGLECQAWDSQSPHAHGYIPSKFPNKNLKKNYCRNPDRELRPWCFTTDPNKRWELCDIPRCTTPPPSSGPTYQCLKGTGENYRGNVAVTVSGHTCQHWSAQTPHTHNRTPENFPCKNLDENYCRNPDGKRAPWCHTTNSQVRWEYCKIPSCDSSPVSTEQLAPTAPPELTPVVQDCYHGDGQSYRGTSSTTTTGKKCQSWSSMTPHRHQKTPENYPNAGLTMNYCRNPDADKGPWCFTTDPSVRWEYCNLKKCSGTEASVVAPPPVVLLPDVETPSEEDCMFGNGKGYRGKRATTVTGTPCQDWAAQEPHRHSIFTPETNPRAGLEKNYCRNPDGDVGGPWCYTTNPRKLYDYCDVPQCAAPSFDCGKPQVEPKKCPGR

IC50 (plasmin) [µM] | IC50 (thrombin) [µM] | IC50 (human Factor Xa) [µM] | Structure (SMILES)
0.0079 | > 1000 | 22 | COC(=O)N[C@H](CCCCNS(=O)(=O)c1ccc(C)cc1)C(=O)N[C@@H](Cc1ccccc1)C(=O)N[C@H](C=O)CCCCN [Compound 2, N-α-Methoxycarbonyl-N-ε-(p-tosyl)-D-lysyl-L-phenylalanyl-L-lysinal hydrochloride] (Moc-[dK](Tos)-Phe-Lys-aldehyde)
0.096 | > 1000 | 85 | Cc1ccc(S(=O)(=O)NCCCC[C@@H](NC=O)C(=O)N[C@@H](Cc2ccccc2)C(=O)N[C@H](C=O)CCCCN)cc1 [Compound 4, N-α-Formyl-N-ε-(p-tosyl)-D-lysyl-L-phenylalanyl-L-lysinal hydrochloride] (For-[dK](Tos)-Phe-Lys-aldehyde)
